Assay [1] addresses T1, PRMT5-MEP50 enzyme (Homo sapiens, UniProt O14744).
T1 construct: One virus expresses full length human PRMT5 with Flag-tag at N-terminus
Kind of assay: In vitro assay (Assay 1): PRMT5-MEP50 high throughput mass spectrometer assay, inhibition of SAH formation. The assay is classed as biochemical. The settings on record: individual measurements shown, read-out: pIC50 Assay 1 (converted). The source says: EXPERIMENTAL PROCEDURES IN VITRO ASSAY (ASSAY 1)
PRMT5-MEP50 enzyme was purchased from Charles River (Argenta). The enzyme complex was produced in insect cells (Sf9) infected simultaneously with two baculoviruses. One virus expresses full length human PRMT5 with Flag-tag at N-terminus, the second virus expresses full length MEP50 with His6-TEV cleavage at N-terminus. The protein was affinity purified using anti-Flag (M2) beads eluted with 3×FLAG peptide, followed by His-Select eluted with 0.5M imidazole. Eluted protein was then dialysed against tris-buffered saline (TBS) (pH 8.0) containing 20% glycerol and 3 mM dithiothreitol (DTT).
Full-length untagged human recombinant histone H2A (residues 1-130, Genbank Accession #NM_021052, MW=14.1 kDa) expressed in E. coli was purchased from Reaction Biology Corporation, Cat #HMT-11-146. Reagents used for making reaction buffer or stopping reaction were purchased including Tris base (Sigma Cat #T-1503), NaCl (Sigma Cat #RGF-3270), MgCl2 (Sigma Cat #M0250), DTT (Invitrogen Cat #15508-013) and Formic Acid (Riedel deHaen, Cat #33015)
High Throughput Mass Spectrometer Assay
PRMT5 catalyzes the sequential methylations of the terminal nitrogen atoms on the guanidine groups of arginine residues within proteins using co-substrate S-adenosyl-L-methionine (AdoMet, SAM), forming mono-methyl (MMA), symmetric-dimethyl arginine (sDMA) and S-adenosyl-L-homocysteine (AdoHcy, SAH). The enzyme activity was determined by following the product SAH formation using high throughput mass spectrometry (Agilent Rapidfire 300 System coupled to a Sciex 4000 series QTrapm triple-quad MS/MS). The reaction buffer was 20 mM Tris-HC, pH 8.5, 50 mM NaCl, 5 mM MgCl2 and 1 mM DTT. The reaction activity was stopped using 1% formic acid (final concentration).
The IC50 Studies were performed using eleven point dosing series made for each compound by serially diluted 1:2 in dimethyl sulfoxide (DMSO), with point 12 being a DMSO control. Compounds were first spotted to plates, and followed by addition of 2 μM SAM and 0.6 μM H2A (histone H2A) solution mixture. The same volume of enzyme solution was added to initiate the enzymatic reactions. The final concentrations of the reaction are at 1 μM SAM, 0.3 μM H2A and 10 nM enzyme. The reaction was incubated at 30° C. for 60 minutes (min) and then quenched by addition of formic acid to a final concentration of 1%. The inhibitions of SAH formation in the presence of compounds were calculated as a percentage of the control relative to the uninhibited reaction as a function of inhibitor concentration. The data were fit as follows: Y=Bottom+(Top−Bottom)/(1+10^((log IC50−X)*h))
where IC50 is the inhibitor concentration (same unit as X) at 50% inhibition and h is the Hill slope. Y is percent of inhibition, X is log of compound concentration. Bottom and Top are the plateaus in same units as Y.

The subject of assay [2] is A549 cells. The experiment in a line: PD assay (Assay 2): inhibition of nuclear symmetric Arginine dimethylation (SYM10 immunohistochemistry) in A549 cells. The settings on record: individual measurements shown; for IC50: Homo sapiens, A549, PD assay in A549 cells, read-out: pIC50 Assay 2 (converted); for pIC50 Assay 2: PD assay in A549 cells. The assay is classed as cell-based. As to the method: EXPERIMENTAL PROCEDURE PD ASSAY (ASSAY 2)
A549 cells (ATCC, Cat #CCL-185) were cultured in Dulbecco's Modified Eagle's Medium (DMEM) (Sigma, Cat #D5796), supplemented with 10% Fetal Calf Serum (FCS)(HyClone™, Cat #SV30160.03), 100 mM Sodium Pyruvate (Sigma, Cat #S8636), 200 mM L-Glutamine (Sigma, Cat #G7513) and 50 mg/mL Gentamycing (Gibco, Cat #15750-037).
Reagents used for buffers were purchased: Dulbecco's phosphate buffered saline (DPBS) without Ca/Mg (Sigma, Cat #D8537), phosphate buffered saline (PBS) 10× (Roche, Cat #11 666 789 001), Formalin solution 10% (Sigma, HT50-1-128-4L), MeOH 100% (Sigma, Cat #32213-2.5L), Triton X-100 (Acros, Cat #215680010), Bovine Serum Albumin (BSA) (Sigma, Cat #A2153), Alexa fluor 488 goat anti-rabbit antibody (Life Technologies, Cat #A11034), HCS CellMask Deep Red Stain (Life Technologies, Cat #H32721), Hoechst Stain (Life Technologies, Cat #33258), Anti-dimethyl-Arginine, sym (SYM10) antibody (Millipore, 07-412).
Immunohistochemistry Procedure
Cells were plated at 400 cells/40 μL/well in 384 well black plates μclear bottom (Perkin Elmer) and overnight incubated at 37° C., 5% CO2. The IC50 Studies were performed using nine point dosing series ranging from 10 μM to […] for each compound. 80 nL of the respective dilution of the compounds was added using the Labcyte POD 810 (Labcyte) reaching a final DMSO concentration of 0.2% in cell culture. After an incubation period of 48 h at 37° C. and 5% CO2, cells were fixed in 10% formalin solution for 15 min at r.t. and 20 min in ice-cold MeOH, after which they were washed 3× in DPBS. Subsequently, the cells were blocked for 1 h in blocking buffer (PBS+1% BSA and 0.5% Triton X-100) and incubated overnight at 4° C. with the SYM10 antibody diluted 1/2000 in blocking buffer. The cells were washed 3× with washing buffer (PBS+0.1% Triton X-100) and incubated with the Alexa fluor 488 goat anti-rabbit antibody diluted 1/200 in blocking buffer for 1 h at r.t. Subsequently, they were washed 3× with washing buffer and incubated for 30 min at r.t. with PBS containing a 1/5000 dilution of Hoechst Stain and a 1/5000 dilution of the HCS CellMask Deep Red Stain. After a final wash with PBS, the plates were imaged using the 10×W lens of the Opera® system (Perkin Elmer Life Sciences) using following settings (values in nm):
In the above equations, the following variable names are use: […]
In the above equations, the following controls were used for normalization: […]
Low control: minimum level of symmetrically dimethylated Arginines (cells treated with reference compound at 10 μM).
High control: maximum level of symmetrically dimethylated Arginines (DMSO treated cells).
IC50 and pIC50 (−log IC50) values were calculated using the appropriate software.
pIC50 values (Co. No. means compound number; n.d. means not determined).

The values that follow come from patent publication US10898504B2, “Substituted nucleoside analogues for use as PRMT5 inhibitors” (Janssen Pharmaceutica NV, priority 2016, dated 2021).

Several values for one entry are separate records, joined by “and”; a condition that tells them apart may be missing. Identical values can stand only once.

T1 sequence (O14744 whole entry): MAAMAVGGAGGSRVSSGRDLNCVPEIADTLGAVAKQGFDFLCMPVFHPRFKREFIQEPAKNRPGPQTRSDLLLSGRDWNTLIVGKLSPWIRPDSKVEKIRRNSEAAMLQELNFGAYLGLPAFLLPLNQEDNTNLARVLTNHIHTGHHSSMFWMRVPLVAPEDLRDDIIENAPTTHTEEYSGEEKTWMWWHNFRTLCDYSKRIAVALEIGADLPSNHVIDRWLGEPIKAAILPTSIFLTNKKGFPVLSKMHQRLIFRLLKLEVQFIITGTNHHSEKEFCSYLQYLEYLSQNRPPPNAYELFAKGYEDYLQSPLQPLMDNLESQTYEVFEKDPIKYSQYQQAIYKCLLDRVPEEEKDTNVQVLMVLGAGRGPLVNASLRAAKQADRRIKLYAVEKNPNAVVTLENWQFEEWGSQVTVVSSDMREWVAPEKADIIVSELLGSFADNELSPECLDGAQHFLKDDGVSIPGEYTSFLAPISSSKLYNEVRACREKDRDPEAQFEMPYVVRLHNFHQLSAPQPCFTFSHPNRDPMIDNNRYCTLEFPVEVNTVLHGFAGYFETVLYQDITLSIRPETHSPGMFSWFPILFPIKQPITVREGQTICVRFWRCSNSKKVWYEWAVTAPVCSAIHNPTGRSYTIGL
T1 sequence (Q9BQA1 whole entry partner): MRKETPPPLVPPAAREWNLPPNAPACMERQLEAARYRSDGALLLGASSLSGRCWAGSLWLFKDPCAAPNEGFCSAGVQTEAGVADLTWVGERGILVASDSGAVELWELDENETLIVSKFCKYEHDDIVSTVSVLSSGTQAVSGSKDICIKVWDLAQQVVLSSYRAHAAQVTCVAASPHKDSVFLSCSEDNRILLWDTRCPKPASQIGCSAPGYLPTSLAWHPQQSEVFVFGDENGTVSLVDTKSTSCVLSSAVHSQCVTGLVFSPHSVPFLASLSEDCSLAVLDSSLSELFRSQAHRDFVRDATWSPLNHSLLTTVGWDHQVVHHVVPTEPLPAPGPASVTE

For the molecule `Nc1ncnc2c1ccn2[C@@H]1O[C@H](CN2CCCC3(CNCCO3)C2)[C@@H](O)[C@H]1O` (single isomer, unassigned) [Compound 33], the IC50 in assay [1] is 0.24 µM; in assay [2], 12 µM.

Take `Nc1ncnc2c1ccn2[C@@H]1O[C@H](CN2CCCC3(CNCCO3)C2)[C@@H](O)[C@H]1O` (single isomer, unassigned) [Compound 34]: the IC50 in assay [1] was 3.98 µM. Moreover, the “pIC50 Assay 2” value in assay [2] is listed as under 4.7. As to `Nc1ncnc2c1ccn2[C@@H]1O[C@H](CN2CCCC3(CCCCN3)C2)[C@@H](O)[C@H]1O` (single isomer, unassigned) [Compound 35], the IC50 in assay [1] is 0.105 µM; in assay [2], about 6.17 µM. Turning to `Nc1ncnc2c1ccn2[C@@H]1O[C@H](CN2CCCC3(CCCCN3)C2)[C@@H](O)[C@H]1O` (single isomer, unassigned) [Compound 36], the IC50 in assay [1] is 1.91 µM. Also, the “pIC50 Assay 2” value in assay [2] is about 5.13.

For `Nc1ncnc2c1ccn2[C@@H]1O[C@H](CN2CCCC3(CCCN3)C2)[C@@H](O)[C@H]1O` (single isomer, unassigned) [Compound 39], the IC50 was 0.0676 µM in assay [1] and 11.2 µM in assay [2].

For the molecule `Nc1ncnc2c1ccn2[C@@H]1O[C@H](CN2CCOCC23CCNC3)[C@@H](O)[C@H]1O` (single isomer, unassigned) [Compound 110], the IC50 in assay [1] is 1.23 µM; in assay [2], over 10 µM. Take `Nc1ncnc2c1ccn2[C@@H]1O[C@H](CN2CCOCC23CCNC3)[C@@H](O)[C@H]1O` (single isomer, unassigned) [Compound 111]: the IC50 in assay [1] was 0.174 µM. Further, the “pIC50 Assay 2” value in assay [2] is about 5.26. On to `Nc1ncnc2c1ccn2[C@@H]1O[C@H](CN2C(C(F)(F)F)CCC23CCNCC3)[C@@H](O)[C@H]1O` (single isomer, unassigned) [Compound 115], for which the IC50 is 0.0234 µM in assay [1] and about 1.66 µM in assay [2]. Regarding `Nc1ncnc2c1ccn2[C@@H]1O[C@H](CN2C(C(F)(F)F)CCC23CCNCC3)[C@@H](O)[C@H]1O` (single isomer, unassigned) [Compound 116], in assay [1], the IC50 was 0.151 µM. For the same molecule, in assay [2], the “pIC50 Assay 2” value came out at 5.53.

Regarding `Nc1ncnc2c1ccn2[C@@H]1O[C@H](CN2CCCC23CCCNCC3)[C@@H](O)[C@H]1O` (single isomer, unassigned) [Compound 117], the IC50 was 0.0339 µM in assay [1] and 0.501 µM in assay [2].

Consider `Nc1ncnc2c1ccn2[C@@H]1O[C@H](CN2CCCC23CCCNCC3)[C@@H](O)[C@H]1O` (single isomer, unassigned) [Compound 118], for which the IC50 in assay [1] is 0.0355 µM. Further, the “pIC50 Assay 2” value in assay [2] came to 6.29. For `Nc1ncnc2c1ccn2[C@@H]1O[C@H](CN2CCCC23CCCNC3)[C@@H](O)[C@H]1O` (single isomer, unassigned) [Compound 119] the same measures were 0.155 µM and about 5.97.

For `Nc1ncnc2c1ccn2[C@@H]1O[C@H](CN2CCCC23CCCNC3)[C@@H](O)[C@H]1O` (single isomer, unassigned) [Compound 120], the IC50 in assay [1] is 2.29 µM. The “pIC50 Assay 2” value in assay [2] is recorded as under 5. Turning to `CN1CCC2(CCCN2C[C@H]2O[C@@H](n3cnc4c(N)ncnc43)[C@H](O)[C@@H]2O)CC1` [Compound 1], the IC50 is 0.219 µM in assay [1] and 7.24 µM in assay [2]. For `CN1CC2(CCCN2C[C@H]2O[C@@H](n3cnc4c(N)ncnc43)[C@H](O)[C@@H]2O)C1` [Compound 2] the same measures were 0.776 µM and over 10 µM. Taken in the same sequence, the figures for `CN1CCC2(CCN2C[C@H]2O[C@@H](n3cnc4c(N)ncnc43)[C@H](O)[C@@H]2O)C1` (some centres unmarked) [Compound 3] were 1.66 µM and over 10 µM. `CN1CCC12CCN(C[C@H]1O[C@@H](n3cnc4c(N)ncnc43)[C@H](O)[C@@H]1O)C2` (some centres unmarked) [Compound 4]: the IC50 in assay [1] was 2.29 µM; in assay [2], over 10 µM. For `CN1CC2(CCN(C[C@H]3O[C@@H](n4cnc5c(N)ncnc54)[C@H](O)[C@@H]3O)C2)C1` [Compound 5] the same measures were 8.13 µM and over 10 µM. Take `CN1CCC2(C1)CN(C[C@H]1O[C@@H](n3cnc4c(N)ncnc43)[C@H](O)[C@@H]1O)C2` [Compound 6]: in assay [1], the IC50 is over 100 µM. Take `CN1CCCC12CN(C[C@H]1O[C@@H](n3cnc4c(N)ncnc43)[C@H](O)[C@@H]1O)C2` [Compound 7]: the IC50 is 66.1 µM in assay [1] and over 10 µM in assay [2]. Regarding `CN1CC2(CCCN(C[C@H]3O[C@@H](n4cnc5c(N)ncnc54)[C@H](O)[C@@H]3O)C2)C1` [Compound 8], the IC50 in assay [1] is 0.155 µM; in assay [2] it was 1.51 µM. Take `CN1CCC2(CC1)CCN2C[C@H]1O[C@@H](n2cnc3c(N)ncnc32)[C@H](O)[C@@H]1O` [Compound 9]: the IC50 was 0.776 µM in assay [1] and over 10 µM in assay [2]. On to `CN1CCCCC12CN(C[C@H]1O[C@@H](n3cnc4c(N)ncnc43)[C@H](O)[C@@H]1O)C2` [Compound 10], for which the IC50 in assay [1] was 38.9 µM and 24.5 µM; in assay [2], over 10 µM. Take `CN1CC2(CCCCN2C[C@H]2O[C@@H](n3cnc4c(N)ncnc43)[C@H](O)[C@@H]2O)C1` [Compound 11]: the IC50 was 12.3 µM in assay [1] and over 10 µM in assay [2].

Consider `CN1CCC12CN(C[C@H]1O[C@@H](n3cnc4c(N)ncnc43)[C@H](O)[C@@H]1O)C2` [Compound 17], for which the IC50 in assay [1] was over 100 µM. In the case of `CC(C)C(=O)O[C@@H]1[C@H](OC(=O)C(C)C)[C@@H](CN2CC(F)(F)CC23CCN(C)CC3)O[C@H]1n1ccc2c(N)ncnc21` [Compound 101], in assay [2], the “pIC50 Assay 2” value is 7.06 and 7.08. In the case of `Nc1ncnc2c1ccn2[C@@H]1O[C@H](CN2CCCC2(CN2CCCC2)C(F)(F)F)[C@@H](O)[C@H]1O` (some centres unmarked) [Compound 189], the IC50 in assay [1] was over 10 µM.
